Source: article PMC6585789 (American Journal of Hematology, 2017)

How the values were obtained:
[1] = system: subjects with FLT3‐ITD–mutated AML following HCT; details: sorafenib maintenance following HCT; cited from earlier work
[2] = Plasma pharmacokinetics of quizartinib and AC886; type: in vivo, human
[3] = potentially due to induction of metabolizing enzymes; cited from earlier work
[4] = system: subjects with newly diagnosed AML harboring FLT3 mutations; details: in combination with standard first line chemotherapy; cited from earlier work

CNC(=O)c1cc(Oc2ccc(NC(=O)Nc3ccc(Cl)c(C(F)(F)F)c3)cc2)ccn1 [sorafenib]
1‐year OS [1]: 95%
1‐year progression‐free survival (PFS) [1]: 85%

CC(C)(C)c1cc(NC(=O)Nc2ccc(-c3cn4c(n3)sc3cc(OCCN5CCOCC5)ccc34)cc2)no1.Cl.Cl [quizartinib, N‐(5‐tert‐butyl‐isoxazol‐3‐yl)‐N′‐{4‐[7‐(2‐morpholin‐4‐yl‐ethoxy)imidazo[2,1‐b][1, 3]benzothiazol‐2‐yl]phenyl}urea dihydrochloride]
Plasma trough concentrations reached steady state by ([2]; daily administration): ~15 days
Mean trough concentration ([2]; from cycle 2 onward, continuous administration): > 300 ng/mL
Tmax ([2]; human, plasma, oral): 2 to 3.21 h
Increase in geometric mean AUC0–24 during multiple dosing ([2]; quizartinib, both doses): approximately 5 fold

CO[C@@H]1[C@H](N(C)C(=O)c2ccccc2)C[C@H]2O[C@]1(C)n1c3ccccc3c3c4c(c5c6ccccc6n2c5c31)C(=O)NC4 [midostaurin]
Plasma concentrations during continuous dosing [3]: decrease during continuous dosing
OS benefit [4]: significant OS benefit
